Source: patent publication US20260297121A1, “MITHRAMYCIN (MTM) 2’ OXIMES” (University of Kentucky Research Foundation, priority 2023, published 2026)

Legend:
log P = assay type: physicochemical
PC3 = test: IC50 in PC3 cells; assay type: cell-based; settings: Homo sapiens, PC-3, read-out: IC50 PC2, Table 2; head prints PC2, text PC3
Protocol: (§1) Exemplary compounds of the presently-disclosed subject matter were assessed for activity, including clearance, potency, and selectivity. Results from studies are compiled in Tables 2-4.
(§2) Desirable clearance was identified at lower values of mL hr^−1kg^−1 (e.g., about ≤10 mL hr^−1 kg^−1), desirable potency was identified at lower values of IC50 (e.g., about ≤10 nM in TC32 cells), and desired selectivity was identified at higher ratios of IC50 in PC3/IC50 in TC32 (e.g. about >10).

TC32 cells = test: Potency IC50 in TC32 cells and selectivity; assay type: cell-based; settings: Homo sapiens, TC-32, Table 2, read-out: IC50 TC32
Protocol: as §1, §2

[1] = Clearance (CL) / pharmacokinetics; assay type: in vivo, mice; settings: Table 2
Protocol: as §1, §2
Pharmacokinetics of exemplary compounds of the presently-disclosed subject matter were studied in mice following bolus IV dosing. Groups of three mice were administered the compound(s) and blood samples were collected via saphenous bleed. Plasma was separated by centrifugation and extracted to quantitate analytes by LC/MS/MS. Sample analysis followed upon the system meeting system suitability criteria customary for fit for purpose analytical methods. FIG. 1A includes data comparing YL-C09 to mithramycin (MTM) dosed separately. FIG. 1B includes data for YL-B171, YL-C110 and MTM dosed in cassette format.

SMILES: COc1cc2cc(C(=O)NCCON=C([C@@H](O)[C@@H](C)O)[C@@H](OC)[C@@H]3Cc4cc5cc(O[C@H]6C[C@@H](O[C@H]7C[C@@H](O)[C@H](O)[C@@H](C)O7)[C@H](O)[C@@H](C)O6)c(C)c(O)c5c(O)c4C(=O)[C@H]3O[C@H]3C[C@@H](O[C@H]4C[C@@H](O[C@H]5C[C@](C)(O)[C@H](O)[C@@H](C)O5)[C@@H](O)[C@@H](C)O4)[C@H](O)[C@@H](C)O3)[nH]c2cc1OC [YL-B158]
- logP (log P; Table 2): 1.28
- IC50 (PC3): 300 nM
- IC50 (TC32 cells): 35.6 nM

SMILES: CO[C@H](C(=NOCCNC(=O)c1[nH]c2ccc(Cl)cc2c1C1CC1)[C@@H](O)[C@@H](C)O)[C@@H]1Cc2cc3cc(O[C@H]4C[C@@H](O[C@H]5C[C@@H](O)[C@H](O)[C@@H](C)O5)[C@H](O)[C@@H](C)O4)c(C)c(O)c3c(O)c2C(=O)[C@H]1O[C@H]1C[C@@H](O[C@H]2C[C@@H](O[C@H]3C[C@](C)(O)[C@H](O)[C@@H](C)O3)[C@@H](O)[C@@H](C)O2)[C@H](O)[C@@H](C)O1 [YL-C124]
- logP (log P; Table 2): 3.06
- IC50 (PC3): 169 nM
- IC50 (TC32 cells): 22.4 nM

SMILES: COC(C(=NOCCNC(=O)c1cc2c(=O)n(C)c(=O)n(C)c2[nH]1)C(O)C(C)O)C1Cc2cc3cc(OC4CC(OC5CC(O)C(O)C(C)O5)C(O)C(C)O4)c(C)c(O)c3c(O)c2C(=O)C1OC1CC(OC2CC(OC3CC(C)(O)C(O)C(C)O3)C(O)C(C)O2)C(O)C(C)O1 (stereo not shown) [YL-B179]
- logP (log P; Table 2): -0.02
- IC50 (PC3): 3000 nM
- IC50 (TC32 cells): 679 nM

SMILES: COC(C(=NOCCNC(=O)c1cc2cc(O)ccc2[nH]1)C(O)C(C)O)C1Cc2cc3cc(OC4CC(OC5CC(O)C(O)C(C)O5)C(O)C(C)O4)c(C)c(O)c3c(O)c2C(=O)C1OC1CC(OC2CC(OC3CC(C)(O)C(O)C(C)O3)C(O)C(C)O2)C(O)C(C)O1 (stereo not shown) [YL-B170]
- logP (log P; Table 2): 1.02
- IC50 (PC3): 365 nM
- IC50 (TC32 cells): 70.7 nM

SMILES: CO[C@H](C(=NOCCNC(=O)c1cc2cc(-c3cnn(C)c3)ccc2[nH]1)[C@@H](O)[C@@H](C)O)[C@@H]1Cc2cc3cc(O[C@H]4C[C@@H](O[C@H]5C[C@@H](O)[C@H](O)[C@@H](C)O5)[C@H](O)[C@@H](C)O4)c(C)c(O)c3c(O)c2C(=O)[C@H]1O[C@H]1C[C@@H](O[C@H]2C[C@@H](O[C@H]3C[C@](C)(O)[C@H](O)[C@@H](C)O3)[C@@H](O)[C@@H](C)O2)[C@H](O)[C@@H](C)O1 [YL-C20]
- logP (log P; Table 2): 2.1
- IC50 (PC3): 1020 nM
- IC50 (TC32 cells): 69.8 nM

SMILES: CO[C@H](C(=NOCCNC(=O)c1cc2cc(Cl)cc(Cl)c2[nH]1)[C@@H](O)[C@@H](C)O)[C@@H]1Cc2cc3cc(O[C@H]4C[C@@H](O[C@H]5C[C@@H](O)[C@H](O)[C@@H](C)O5)[C@H](O)[C@@H](C)O4)c(C)c(O)c3c(O)c2C(=O)[C@H]1O[C@H]1C[C@@H](O[C@H]2C[C@@H](O[C@H]3C[C@](C)(O)[C@H](O)[C@@H](C)O3)[C@@H](O)[C@@H](C)O2)[C@H](O)[C@@H](C)O1 [YL-B167]
- logP (log P; Table 2): 2.83
- IC50 (PC3): 48.4 nM
- IC50 (TC32 cells): 15.1 nM

SMILES: COc1ccc2[nH]c(C(=O)NCCON=C([C@@H](O)[C@@H](C)O)[C@@H](OC)[C@@H]3Cc4cc5cc(O[C@H]6C[C@@H](O[C@H]7C[C@@H](O)[C@H](O)[C@@H](C)O7)[C@H](O)[C@@H](C)O6)c(C)c(O)c5c(O)c4C(=O)[C@H]3O[C@H]3C[C@@H](O[C@H]4C[C@@H](O[C@H]5C[C@](C)(O)[C@H](O)[C@@H](C)O5)[C@@H](O)[C@@H](C)O4)[C@H](O)[C@@H](C)O3)cc2c1 [YL-B166]
- logP (log P; Table 2): 1.56
- IC50 (PC3): 32.3 nM
- IC50 (TC32 cells): 2.33 nM

SMILES: COC(C(=NOCC(Cc1c[nH]c2ccccc12)NC(=O)c1ccc2scnc2c1)C(O)C(C)O)C1Cc2cc3cc(OC4CC(OC5CC(O)C(O)C(C)O5)C(O)C(C)O4)c(C)c(O)c3c(O)c2C(=O)C1OC1CC(OC2CC(OC3CC(C)(O)C(O)C(C)O3)C(O)C(C)O2)C(O)C(C)O1 (stereo not shown) [YL-C55]
- log P (log P; Table 2): 3.26

SMILES: COC(C(=NOCCNC(=O)c1[nH]c2ccc(Cl)cc2c1-c1ccc(F)c(Cl)c1)C(O)C(C)O)C1Cc2cc3cc(OC4CC(OC5CC(O)C(O)C(C)O5)C(O)C(C)O4)c(C)c(O)c3c(O)c2C(=O)C1OC1CC(OC2CC(OC3CC(C)(O)C(O)C(C)O3)C(O)C(C)O2)C(O)C(C)O1 (stereo not shown) [YL-C116]
- log P (log P; Table 2): 4.19
- log P (log P; Table 3): 4.19

SMILES: COC(C(=NOCCNC(=O)c1c(-c2ccc(Cl)cc2)c2cc(Cl)ccc2n1CC(C)C)C(O)C(C)O)C1Cc2cc3cc(OC4CC(OC5CC(O)C(O)C(C)O5)C(O)C(C)O4)c(C)c(O)c3c(O)c2C(=O)C1OC1CC(OC2CC(OC3CC(C)(O)C(O)C(C)O3)C(O)C(C)O2)C(O)C(C)O1 (stereo not shown) [YL-C100]
- log P (log P; Table 2): 6.21

SMILES: CO[C@H](C(=NOCc1ccc2scnc2c1)[C@@H](O)[C@@H](C)O)[C@@H]1Cc2cc3cc(O[C@H]4C[C@@H](O[C@H]5C[C@@H](O)[C@H](O)[C@@H](C)O5)[C@H](O)[C@@H](C)O4)c(C)c(O)c3c(O)c2C(=O)[C@H]1O[C@H]1C[C@@H](O[C@H]2C[C@@H](O[C@H]3C[C@](C)(O)[C@H](O)[C@@H](C)O3)[C@@H](O)[C@@H](C)O2)[C@H](O)[C@@H](C)O1 [YL-C52]
- logP (log P; Table 2): 1.87
- IC50 (PC3): 8.07 nM
- IC50 (TC32 cells): 6.41 nM

SMILES: COC(C(=NOCC(=O)Nc1cccc2cnccc12)C(O)C(C)O)C1Cc2cc3cc(OC4CC(OC5CC(O)C(O)C(C)O5)C(O)C(C)O4)c(C)c(O)c3c(O)c2C(=O)C1OC1CC(OC2CC(OC3CC(C)(O)C(O)C(C)O3)C(O)C(C)O2)C(O)C(C)O1 (stereo not shown) [YL-B160]
- logP (log P; Table 2): 1.3
- IC50 (PC3): 1130 nM
- IC50 (TC32 cells): 86.1 nM

SMILES: CO[C@H](C(=NOCCNC(=O)c1nnc2nc(C)cc(C)n12)[C@@H](O)[C@@H](C)O)[C@@H]1Cc2cc3cc(O[C@H]4C[C@@H](O[C@H]5C[C@@H](O)[C@H](O)[C@@H](C)O5)[C@H](O)[C@@H](C)O4)c(C)c(O)c3c(O)c2C(=O)[C@H]1O[C@H]1C[C@@H](O[C@H]2C[C@@H](O[C@H]3C[C@](C)(O)[C@H](O)[C@@H](C)O3)[C@@H](O)[C@@H](C)O2)[C@H](O)[C@@H](C)O1 [YL-B162]
- logP (log P; Table 2): -0.56
- IC50 (PC3): 3000 nM
- IC50 (TC32 cells): 2840 nM

SMILES: CO[C@H](C(=NOCCNC(=O)c1ccc2scnc2c1)[C@@H](O)[C@@H](C)O)[C@@H]1Cc2cc3cc(O[C@H]4C[C@@H](O[C@H]5C[C@@H](O)[C@H](O)[C@@H](C)O5)[C@H](O)[C@@H](C)O4)c(C)c(O)c3c(O)c2C(=O)[C@H]1O[C@H]1C[C@@H](O[C@H]2C[C@@H](O[C@H]3C[C@](C)(O)[C@H](O)[C@@H](C)O3)[C@@H](O)[C@@H](C)O2)[C@H](O)[C@@H](C)O1 [YL-C61]
- logP (log P; Table 2): 1.12
- IC50 (PC3): 214 nM
- IC50 (TC32 cells): 64.3 nM

SMILES: CO[C@H](C(=NOCCNC(=O)c1c(-c2ccc(Cl)cc2)c2cc(Cl)ccc2n1C)[C@@H](O)[C@@H](C)O)[C@@H]1Cc2cc3cc(O[C@H]4C[C@@H](O[C@H]5C[C@@H](O)[C@H](O)[C@@H](C)O5)[C@H](O)[C@@H](C)O4)c(C)c(O)c3c(O)c2C(=O)[C@H]1O[C@H]1C[C@@H](O[C@H]2C[C@@H](O[C@H]3C[C@](C)(O)[C@H](O)[C@@H](C)O3)[C@@H](O)[C@@H](C)O2)[C@H](O)[C@@H](C)O1 [YL-C98]
- log P (log P; Table 2): 4.6

SMILES: CO[C@H](C(=NOC[C@@H](Cc1c[nH]c2ccccc12)NC(=O)c1ccc2scnc2c1)[C@@H](O)[C@@H](C)O)[C@@H]1Cc2cc3cc(O[C@H]4C[C@@H](O[C@H]5C[C@@H](O)[C@H](O)[C@@H](C)O5)[C@H](O)[C@@H](C)O4)c(C)c(O)c3c(O)c2C(=O)[C@H]1O[C@H]1C[C@@H](O[C@H]2C[C@@H](O[C@H]3C[C@](C)(O)[C@H](O)[C@@H](C)O3)[C@@H](O)[C@@H](C)O2)[C@H](O)[C@@H](C)O1 [YL-C53]
- log P (log P; Table 2): 3.26

SMILES: COc1ccc2[nH]c(C(=O)NCCON=C([C@@H](O)[C@@H](C)O)[C@@H](OC)[C@@H]3Cc4cc5cc(O[C@H]6C[C@@H](O[C@H]7C[C@@H](O)[C@H](O)[C@@H](C)O7)[C@H](O)[C@@H](C)O6)c(C)c(O)c5c(O)c4C(=O)[C@H]3O[C@H]3C[C@@H](O[C@H]4C[C@@H](O[C@H]5C[C@](C)(O)[C@H](O)[C@@H](C)O5)[C@@H](O)[C@@H](C)O4)[C@H](O)[C@@H](C)O3)c(-c3ccc(Cl)cc3)c2c1 [YL-C114]
- CL [1]: 0.467 mL/min/kg
- log P (log P; Table 2): 3.58

SMILES: CO[C@H](C(=NOCC(=O)N[C@@H](Cc1c[nH]c2ccccc12)C(=O)Nc1ccc2scnc2c1)[C@@H](O)[C@@H](C)O)[C@@H]1Cc2cc3cc(O[C@H]4C[C@@H](O[C@H]5C[C@@H](O)[C@H](O)[C@@H](C)O5)[C@H](O)[C@@H](C)O4)c(C)c(O)c3c(O)c2C(=O)[C@H]1O[C@H]1C[C@@H](O[C@H]2C[C@@H](O[C@H]3C[C@](C)(O)[C@H](O)[C@@H](C)O3)[C@@H](O)[C@@H](C)O2)[C@H](O)[C@@H](C)O1 [YL-C39]
- log P (log P; Table 2): 2.56

SMILES: COC(C(=NOCCNC(=O)c1cc2cc(C(F)(F)F)ccc2[nH]1)C(O)C(C)O)C1Cc2cc3cc(OC4CC(OC5CC(O)C(O)C(C)O5)C(O)C(C)O4)c(C)c(O)c3c(O)c2C(=O)C1OC1CC(OC2CC(OC3CC(C)(O)C(O)C(C)O3)C(O)C(C)O2)C(O)C(C)O1 (stereo not shown) [YL-B175]
- logP (log P; Table 2): 2.54
- IC50 (PC3): 1.5 nM
- IC50 (TC32 cells): 1.2 nM

SMILES: COC(C(=NOCC(Cc1c[nH]c2ccccc12)NC(=O)c1cc2cc(Cl)ccc2[nH]1)C(O)C(C)O)C1Cc2cc3cc(OC4CC(OC5CC(O)C(O)C(C)O5)C(O)C(C)O4)c(C)c(O)c3c(O)c2C(=O)C1OC1CC(OC2CC(OC3CC(C)(O)C(O)C(C)O3)C(O)C(C)O2)C(O)C(C)O1 (stereo not shown) [YL-C54]
- log P (log P; Table 2): 4.34
